Consider 20 compounds from patent US20260070929A1, “METHODS AND COMPOSITIONS FOR MODULATING KRAS(G12D)” (Ranok Therapeutics (Hangzhou) Co. LTD., priority 2022, published 2026).

Experiment [1] concerns ASPC1 pancreatic adenocarcinoma cells [homozygous G12D]. As to the kind of experiment: Cancer cell line proliferation (CellTiter-Glo), ASPC1. It is filed as cell-based. The conditions noted are these: Homo sapiens, ASPC1, 72 h, 72 hr treatment, read-out: ASPC-1 CTG (EC50). As for the experimental part:
The following cancer cell lines were employed: AGS gastric carcinoma [heterozygous G12D](ATCC, CRL-1739); A-427 lung carcinoma [heterozygous G12D](ATCC, HTB-53); ASPC1 pancreatic adenocarcinoma [homozygous G12D](ATCC, CRL-1682) and SW1990 pancreatic adenocarcinoma [homozygous G12D](ATCC CRL-2172). Cell lines were cultured essentially according to ATCC recommendations.
AGS, A-427, ASPC1, SW1990, and GP2D cells were plated in 96-well tissue culture plates at 4,000 cells/well and incubated at 37° C./5% CO2 for 72 hr in 100 μl of media. 3-fold serial dilutions of each test compound were prepared ranging from 20 μM to 1.02 nM. Each cell line was then treated with test compounds at various concentrations with a final concentration of 0.5% DMSO/well, and then incubated at 37° C./5% CO2 for 72 hr. 100 µl of CellTiter-Glo® Reagent (Promega Corporation, Madison, WI) was added to each well and processed according manufacturer's protocol. Results were analyzed and EC50 values were calculated in GraphPad 7 software.
A general note: ATP-based viability assays read luminescence as a measure of living cells.

In experiment [2] the test system is AGS gastric carcinoma cells [heterozygous G12D]. As to the kind of experiment: Cancer cell line proliferation (CellTiter-Glo), AGS. The following applies: Homo sapiens, 72 hr treatment, read-out: AGS CTG (EC50). Format: cell-based. In a few lines: (§1)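 EC50 values come from CellTiter-Glo viability measured after 72 hr compound treatment at 37° C./5% CO2 with 0.5% final DMSO. Plating was at 4,000 cells/well with 72 hr growth before dosing, and compounds were serially diluted 3-fold from 20 μM down to 1.02 nM.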

Experiment [3] relates to A-427 lung carcinoma cells [heterozygous G12D]. As to the kind of experiment: Cancer cell line proliferation (CellTiter-Glo), A-427. Format: cell-based. The conditions noted are these: Homo sapiens, A-427 cells, 72 hr treatment, read-out: A427 CTG (EC50). In a few lines: as §1
Another experiment concerns the target T1, KRAS(G12D)/SOS1 (Homo sapiens, UniProt P01116, G12D).
T1 construct: purchased Cisbio 63ADK000CB17PEH
As to the kind of experiment: KRAS(G12D)/SOS1 homogeneous time-resolved fluorescence (HTRF) assay. Format: binding. The conditions noted are these: absence of GTP; 4° C., 3 hr. In a few lines: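 HTRF kit assay of compound-blocked KRAS(G12D)–SOS1 interaction, run without GTP. Compounds were tested as 3-fold dilutions from 20 µM to 1.02 nM and incubated with the reaction components for 3 hr at 4 °C, sealed. IC50 was taken as the concentration giving 50% of maximal inhibition.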
(In general: In TR-FRET formats the signal depends on donor and acceptor labels being close together.)

Molecules are shown by their SMILES. pEC50, pIC50: −log10 of the molar value.

T1 sequence (P01116 1-188 isoform P01116-2 G12D): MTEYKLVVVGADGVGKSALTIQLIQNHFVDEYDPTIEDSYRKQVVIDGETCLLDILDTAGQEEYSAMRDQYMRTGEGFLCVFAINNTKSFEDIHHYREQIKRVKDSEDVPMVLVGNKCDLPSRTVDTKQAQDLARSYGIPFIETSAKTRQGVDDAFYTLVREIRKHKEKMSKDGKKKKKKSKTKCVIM

As to `CCc1cc(-c2nnc(C(=O)NC)n2-c2ccc(CN3CCN(C(=O)C4CCN([C@H]5C[C@@H](COc6nc(C7CC8CCC(C7)N8)c7cnc(-c8cccc9cccc(Cl)c89)c(F)c7n6)N(C)C5)CC4)CC3)cc2)c(O)cc1O` (some centres unmarked) [Compound 9], the pEC50 (in general, −log10 of the EC50, conventionally taken in molar units) in experiment [1] was below 6.00; in experiment [2], 6.00 to 7.00; in experiment [3], below 6.00. Moreover, at KRAS(G12D)/SOS1, the pIC50 (usually −log10 of the IC50, conventionally taken in molar units) was 6.00 to 7.00.

Regarding `C#Cc1cccc2cccc(-c3ncc4c(N5CC6CCC(C5)N6)nc(OCC5(CN6CCN(Cc7ccc(-n8c(O)nnc8-c8cc(C(C)C)c(O)cc8O)cc7)CC6)CC5)nc4c3F)c12` [Compound 10], the pEC50 in experiment [1] was below 6.00; in experiment [2], 6.00 to 7.00; in experiment [3] it was 6.00 to 7.00. At KRAS(G12D)/SOS1, this compound had a pIC50 above 7.00.

Take `C#Cc1cccc2cccc(-c3ncc4c(N5CC6CCC(C5)N6)nc(OCC5(CN6CCN(Cc7ccc8c(c7)CN(C(=O)c7cc(C(C)C)c(O)cc7O)C8)CC6)CC5)nc4c3F)c12` [Compound 11]: the pEC50 in experiment [1], in experiment [2] and in experiment [3] was 6.00 to 7.00 in each case. On KRAS(G12D)/SOS1, the pIC50 was above 7.00.

For the compound `C#Cc1cccc2cccc(-c3ncc4c(N5CC6CCC(C5)N6)nc(OCC5(CN6CCN(Cc7ccc(-n8c(C(=O)NCC)nnc8-c8cc(C(C)C)c(O)cc8O)cc7)CC6)CC5)nc4c3F)c12` [Compound 12], the pEC50 in experiment [1] was 6.00 to 7.00; in experiment [2], above 7.00; in experiment [3], above 7.00. At KRAS(G12D)/SOS1, this compound had a pIC50 above 7.00.

In the case of `C#Cc1cccc2cccc(-c3ncc4c(N5CC6CCC(C5)N6)nc(OCCN5CCN(Cc6ccc(-n7c(O)nnc7-c7cc(C(C)C)c(O)cc7O)cc6)CC5)nc4c3F)c12` [Compound 13], the pEC50 in experiment [1] is below 6.00; in experiment [2], 6.00 to 7.00; in experiment [3] it was 6.00 to 7.00. This compound gave a pIC50 against KRAS(G12D)/SOS1 of 6.00 to 7.00.

With `C#Cc1cccc2cccc(-c3ncc4c(N5CC6CCC(C5)N6)nc(OCCN5CCN(Cc6ccc7c(c6)CN(C(=O)c6cc(C(C)C)c(O)cc6O)C7)CC5)nc4c3F)c12` [Compound 14], the pEC50 in experiment [1], in experiment [2] and in experiment [3] was 6.00 to 7.00 throughout. On KRAS(G12D)/SOS1, this compound had a pIC50 of 6.00 to 7.00.

As to `C#Cc1cccc2cccc(-c3ncc4c(N5CC6CCC(C5)N6)nc(OC[C@@H]5CC[C@H](CN6CCN(Cc7ccc(-n8c(O)nnc8-c8cc(C(C)C)c(O)cc8O)cc7)CC6)N5C)nc4c3F)c12` [Compound 15], the pEC50 in experiment [1] is below 6.00; in experiment [2], 6.00 to 7.00; in experiment [3] it was 6.00 to 7.00. The compound further showed a pIC50 against KRAS(G12D)/SOS1 above 7.00.

Consider `C#Cc1cccc2cccc(-c3ncc4c(N5CC6CCC(C5)N6)nc(OC[C@@H]5CC[C@H](CN6CCN(Cc7ccc(-n8c(C(=O)NCC)nnc8-c8cc(C(C)C)c(O)cc8O)cc7)CC6)N5C)nc4c3F)c12` [Compound 16], for which the figures for the pEC50 in experiment [1], in experiment [2] and in experiment [3] were 6.00 to 7.00, above 7.00 and above 7.00, respectively. Moreover, the negative-log IC50 (pIC50) on KRAS(G12D)/SOS1 was above 7.00.

`C#Cc1cccc2cccc(-c3ncc4c(N5CC6CCC(C5)N6)nc(OCCN5CCN(Cc6ccc(-n7c(C(=O)NCC)nnc7-c7cc(C(C)C)c(O)cc7O)cc6)CC5)nc4c3F)c12` [Compound 17]: the figures for the pEC50 in experiment [1], in experiment [2] and in experiment [3] were 6.00 to 7.00, above 7.00 and above 7.00, respectively. For the same compound, at KRAS(G12D)/SOS1, the pIC50 was above 7.00.

As for `C#Cc1cccc2cccc(-c3ncc4c(N5CC6CCC(C5)N6)nc(OCC5(CN6CCN(C(=O)C7CCN(Cc8ccc(-n9c(O)nnc9-c9cc(C(C)C)c(O)cc9O)cc8)CC7)CC6)CC5)nc4c3F)c12` [Compound 18], the figures for the pEC50 in experiment [1], in experiment [2] and in experiment [3] were below 6.00, 6.00 to 7.00 and 6.00 to 7.00, respectively. On KRAS(G12D)/SOS1, this compound had a pIC50 above 7.00.

Take `C#Cc1cccc2cccc(-c3ncc4c(N5CC6CCC(C5)N6)nc(OCC5(CN6CCN(C(=O)C7CCN(Cc8ccc(-n9c(C(=O)NCC)nnc9-c9cc(C(C)C)c(O)cc9O)cc8)CC7)CC6)CC5)nc4c3F)c12` [Compound 19]: the negative-log EC50 (pEC50) in experiment [1] is 6.00 to 7.00; in experiment [2] it was above 7.00; in experiment [3] it was 6.00 to 7.00. Besides, the negative logarithm of the IC50 (pIC50) on KRAS(G12D)/SOS1 was above 7.00.

With `C#Cc1cccc2cccc(-c3ncc4c(N5CC6CCC(C5)N6)nc(OCCN5CCN(C(=O)C6CCN(Cc7ccc(-n8c(O)nnc8-c8cc(C(C)C)c(O)cc8O)cc7)CC6)CC5)nc4c3F)c12` [Compound 20], the pEC50 in experiment [1] is below 6.00; in experiment [2], 6.00 to 7.00; in experiment [3] it was 6.00 to 7.00. This compound also showed a pIC50 at KRAS(G12D)/SOS1 of 6.00 to 7.00.

`C#Cc1cccc2cccc(-c3ncc4c(N5CC6CCC(C5)N6)nc(OCCN5CCN(C(=O)C6CCN(Cc7ccc(-n8c(C(=O)NCC)nnc8-c8cc(C(C)C)c(O)cc8O)cc7)CC6)CC5)nc4c3F)c12` [Compound 21]: the pEC50 in experiment [1] is below 6.00; in experiment [2] it was above 7.00; in experiment [3], 6.00 to 7.00. The compound also had a pIC50 on KRAS(G12D)/SOS1 of 6.00 to 7.00.

Take `Cc1cccc2cccc(-c3ncc4c(N5CC6CCC(C5)N6)nc(OC[C@@H]5C[C@H](N6CCN(Cc7ccc(-n8c(O)nnc8-c8cc(C(C)C)c(O)cc8O)cc7)CC6)CN5C)nc4c3F)c12` [Compound 22]: the results for the negative-log EC50 (pEC50) in experiment [1], in experiment [2] and in experiment [3] were below 6.00, 6.00 to 7.00 and 6.00 to 7.00, respectively. The pIC50 at KRAS(G12D)/SOS1 was 6.00 to 7.00.

Take `Cc1cccc2cccc(-c3ncc4c(N5CC6CCC(C5)N6)nc(OC[C@@H]5C[C@H](N6CCC(C(=O)N7CCN(Cc8ccc(-n9c(O)nnc9-c9cc(C(C)C)c(O)cc9O)cc8)CC7)CC6)CN5C)nc4c3F)c12` [Compound 23]: the figures for the pEC50 in experiment [1], in experiment [2] and in experiment [3] were below 6.00, 6.00 to 7.00 and 6.00 to 7.00, respectively. This compound had a pIC50 on KRAS(G12D)/SOS1 of 6.00 to 7.00.

As to `CCNC(=O)c1nnc(-c2cc(C(C)C)c(O)cc2O)n1-c1ccc(CN2CCC(C(=O)N3CCN([C@H]4C[C@@H](COc5nc(N6CC7CCC(C6)N7)c6cnc(-c7cccc8cccc(C)c78)c(F)c6n5)N(C)C4)CC3)CC2)cc1` [Compound 24], the negative logarithm of the EC50 (pEC50) was 6.00 to 7.00 in experiment [1], above 7.00 in experiment [2] and above 7.00 in experiment [3]. Besides, the pIC50 at KRAS(G12D)/SOS1 is 6.00 to 7.00.

Regarding `C#Cc1cccc2cccc(-c3ncc4c(N5CC6CCC(C5)N6)nc(OC[C@@H]5C[C@H](N6CCN(Cc7ccc(-n8c(O)nnc8-c8cc(C(C)C)c(O)cc8O)cc7)CC6)CN5C)nc4c3F)c12` [Compound 26], the pEC50 was below 6.00 in experiment [1], 6.00 to 7.00 in experiment [2] and 6.00 to 7.00 in experiment [3]. On KRAS(G12D)/SOS1, this compound gave a pIC50 above 7.00.

With `C#Cc1cccc2cccc(-c3ncc4c(N5CC6CCC(C5)N6)nc(OCC5CC[C@H](CN6CCN(C(=O)C7CCN(Cc8ccc(-n9c(O)nnc9-c9cc(C(C)C)c(O)cc9O)cc8)CC7)CC6)N5C)nc4c3F)c12` (some centres unmarked) [Compound 27], the pEC50 in experiment [1] was 6.00 to 7.00; in experiment [2] it was above 7.00; in experiment [3], above 7.00. This compound also showed a pIC50 against KRAS(G12D)/SOS1 above 7.00.

With `C#Cc1cccc2cccc(-c3ncc4c(N5CC6CCC(C5)N6)nc(OC[C@@H]5CC[C@H](CN6CCN(C(=O)C7CCN(Cc8ccc(-n9c(C(=O)NCC)nnc9-c9cc(C(C)C)c(O)cc9O)cc8)CC7)CC6)N5C)nc4c3F)c12` [Compound 28], the values for the pEC50 in experiment [1], in experiment [2] and in experiment [3] were 6.00 to 7.00, above 7.00 and above 7.00, respectively. Also, the negative-log IC50 (pIC50) at KRAS(G12D)/SOS1 is above 7.00.

`CCNC(=O)c1nnc(-c2cc(C(C)C)c(O)cc2O)n1-c1ccc(CN2CCN([C@H]3C[C@@H](COc4nc(N5CC6CCC(C5)N6)c5cnc(-c6cccc7cccc(C)c67)c(F)c5n4)N(C)C3)CC2)cc1` [Compound 29]: the pEC50 in experiment [1] is 6.00 to 7.00; in experiment [2] it was above 7.00; in experiment [3] it was above 7.00. This compound also gave a pIC50 on KRAS(G12D)/SOS1 of 6.00 to 7.00.
